Test results taken from patent EP0199247A2, “Cytostatic active medicine containing glycidyl amines” (priority 1985, dated 1986).

Tested on: Tumorart P 388 (Leukämie)
Assay: P 388 leukemia survival test in mice (NCI protocol 1200)
Format: in vivo, Mäusen
Conditions: i.p., 9-day treatment; for Verlängerungsrate T/C: P 388 i.p. 10^6 Zellen/Maus, untreated mean survival 10 days; for Zahl der Tiere aus jeweils einer Gruppe von 6 die 30 Tage überlebten: value in brackets, group of 6
Description: Die nachfolgenden Versuche wurden durchgeführt nach Tcstvorschriften des National Canccr Institute Bethesda, Maryland 200014, veröffentlicht in "Cancer Chemotherany Renorts" Part. 3, Sept. 1972, Vol. 3, Nr. 2. Als Wirksubstanz wurde Triglycidylamin sowie 3-Chlorpropyl-diglycidylamin des vorstehenden Beisniels 4 verwendet. Die Substanz wurde als wäßrige 1 %ige Injektionslösung unmittelbar vor der Applikation frisch hergestellt.
Bei Mäusen wurde gemäß Protokoll 1200 (S. 91 c) die Tumorart P 388 (Leukämie) i.p. mit 10^6 Zellen/Maus gesetzt. Die unbehandelten Tiere hatten eine mittlere Überlebensdauer von 10 Tagen.
Mit den behandelten Testtieren, die einer 9-tägigen i.p. Behandlung mit der in Tabelle 1 angesehenen Dosis unterworfen wurden, wurde eine signifikante Verlängerung der Lebensdauer gegenüber der mittleren Überlebensdauer der nicht mit dem Wirkstoff behandelten Tiere erzielt. Die Verlängerunzstate T/C in Abhängigkeit von der Dosierung des Wirkstoffes ist in der Tabelle 1 zusammengestellt. Die Werte in Klammern bedeuten die Zahl der Tiere aus jeweils einer Gruppe von 6 die 30 Tage üherlebten.

Structure (SMILES)	Verlängerungsrate T/C (Dosis 1,87 mg/kg) [%]	Verlängerungsrate T/C (Dosis 3,75 mg/kg) [%]	Verlängerungsrate T/C (Dosis 7,50 mg/kg) [%]	Zahl der Tiere aus jeweils einer Gruppe von 6 die 30 Tage überlebten (Dosis 7,50 mg/kg)	Verlängerungsrate T/C (Dosis 0,48 mg/kg) [%]	Verlängerungsrate T/C (Dosis 0,97 mg/kg) [%]	Zahl der Tiere aus jeweils einer Gruppe von 6 die 30 Tage überlebten (Dosis 3,75 mg/kg)
ClCCCN(CC1CO1)CC1CO1 (stereo not drawn) [3-Chlorpropyl-diglycidylamin]	179	181	303	3			
C1OC1CN(CC1CO1)CC1CO1 (stereo not drawn) [Triglycidylamin]	252	303			148	174	6
